Assay results taken from ChEMBL document CHEMBL1201862, “PubChem BioAssay data set” (2004).
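Briefly, cells in 96-well plates were exposed to five compound concentrations for 48 h, and endpoints were estimated by linear interpolation. GI50: concentration for 50% inhibition of growth.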 The source made the active and inactive calls. No stated cut-off is given here; in the data, active = GI50 up to about 1.1 µM and inactive = higher.

Experiments:
Test in all cases: inhibition of tumour cell growth, NCI panel, 48 h
[1] = system: DU-145
[2] = system: SNB-19
[3] = system: OVCAR-3
[4] = system: COLO 205
[5] = system: ACHN
[6] = system: MDA-MB-231
[7] = system: TK-10
[8] = system: EKVX
[9] = system: U-251
[10] = system: SW-620
[11] = system: UO-31
[12] = system: MDA-MB-435
[13] = system: OVCAR-8
[14] = system: UACC-257
[15] = system: SF-295
[16] = system: OVCAR-4
[17] = system: HOP-62
[18] = system: OVCAR-5
[19] = system: SR
[20] = system: NCI-H522

SMILES	GI50 [1]	GI50 [2]	GI50 [3]	GI50 [4]	GI50 [5]	GI50 [6]	GI50 [7]	GI50 [8]	GI50 [9]	GI50 [10]	GI50 [11]	GI50 [12]	GI50 [13]	GI50 [14]	GI50 [15]	GI50 [16]	GI50 [17]	GI50 [18]	GI50 [19]	GI50 [20]
O=C(NC1CCCCC1)c1nn[nH]c1Cl	> 100 µM (inactive)	> 100 µM (inactive)	> 100 µM (inactive)	> 100 µM (inactive)	> 100 µM (inactive)	> 100 µM (inactive)	> 100 µM (inactive)	> 100 µM (inactive)	> 100 µM (inactive)	> 100 µM (inactive)	> 100 µM (inactive)	> 100 µM (inactive)	> 100 µM (inactive)	> 100 µM (inactive)	> 100 µM (inactive)	> 100 µM (inactive)	> 100 µM (inactive)	> 100 µM (inactive)	–	–
B.CC(=O)OC1CN2CCC1CC2 (stereo unspecified)	> 100 µM (inactive)	–	> 100 µM (inactive)	–	> 100 µM (inactive)	> 100 µM (inactive)	> 100 µM (inactive)	> 100 µM (inactive)	> 100 µM (inactive)	> 100 µM (inactive)	–	> 100 µM (inactive)	> 100 µM (inactive)	–	> 100 µM (inactive)	–	> 100 µM (inactive)	> 100 µM (inactive)	> 100 µM (inactive)	–
COc1cc(OC)c2c3c(OC)cc(OC)c4c(=O)c(O)c(C[C@@H](C)O)c(c5c(C[C@@H](C)O)c(O)c(=O)c1c25)c43	30.8 µM (inactive)	57.5 µM (inactive)	1.02 µM (active)	3.72 µM (inactive)	33.4 µM (inactive)	1.89 µM (inactive)	53 µM (inactive)	32.4 µM (inactive)	23.5 µM (inactive)	15.5 µM (inactive)	30.7 µM (inactive)	16.6 µM (inactive)	19.8 µM (inactive)	34.3 µM (inactive)	40.2 µM (inactive)	30.5 µM (inactive)	22.4 µM (inactive)	30.6 µM (inactive)	–	–
CC(=O)OC12c3ccccc3C(c3ccccc31)C1C(=O)N(N=C(C)C)C(=O)C12 (stereo unspecified)	> 100 µM (inactive)	> 100 µM (inactive)	> 100 µM (inactive)	> 100 µM (inactive)	–	> 100 µM (inactive)	> 100 µM (inactive)	> 100 µM (inactive)	> 100 µM (inactive)	> 100 µM (inactive)	> 100 µM (inactive)	–	> 100 µM (inactive)	> 100 µM (inactive)	> 100 µM (inactive)	> 100 µM (inactive)	> 100 µM (inactive)	> 100 µM (inactive)	> 100 µM (inactive)	–
O=C(NCc1ccccc1)c1nn[nH]c1O	> 100 µM (inactive)	> 100 µM (inactive)	> 100 µM (inactive)	> 100 µM (inactive)	> 100 µM (inactive)	> 100 µM (inactive)	> 100 µM (inactive)	> 100 µM (inactive)	> 100 µM (inactive)	> 100 µM (inactive)	> 100 µM (inactive)	> 100 µM (inactive)	> 100 µM (inactive)	> 100 µM (inactive)	> 100 µM (inactive)	> 100 µM (inactive)	> 100 µM (inactive)	> 100 µM (inactive)	–	> 100 µM (inactive)
Cc1ccc(-c2n[nH]c(=O)[nH]2)cc1[N+](=O)[O-]	> 100 µM (inactive)	> 100 µM (inactive)	> 100 µM (inactive)	> 100 µM (inactive)	> 100 µM (inactive)	–	> 100 µM (inactive)	0.643 µM (active)	> 100 µM (inactive)	> 100 µM (inactive)	27.5 µM (inactive)	> 100 µM (inactive)	> 100 µM (inactive)	> 100 µM (inactive)	> 100 µM (inactive)	> 100 µM (inactive)	> 100 µM (inactive)	> 100 µM (inactive)	> 100 µM (inactive)	> 100 µM (inactive)
CC(=O)/C(=C/N1CC(=O)NC1=S)C(=O)Nc1ccccc1C	> 100 µM (inactive)	> 100 µM (inactive)	> 100 µM (inactive)	> 100 µM (inactive)	> 100 µM (inactive)	> 100 µM (inactive)	> 100 µM (inactive)	> 100 µM (inactive)	> 100 µM (inactive)	> 100 µM (inactive)	> 100 µM (inactive)	> 100 µM (inactive)	> 100 µM (inactive)	> 100 µM (inactive)	> 100 µM (inactive)	> 100 µM (inactive)	> 100 µM (inactive)	> 100 µM (inactive)	–	–
Cc1ccc(N2CCc3c(C)c(C#N)c4nc5ccccc5n4c32)cc1	> 100 µM (inactive)	37.4 µM (inactive)	> 100 µM (inactive)	90.6 µM (inactive)	> 100 µM (inactive)	–	> 100 µM (inactive)	–	38.8 µM (inactive)	85.9 µM (inactive)	> 100 µM (inactive)	6.27 µM (inactive)	49.3 µM (inactive)	> 100 µM (inactive)	41.6 µM (inactive)	> 100 µM (inactive)	36.6 µM (inactive)	> 100 µM (inactive)	2.94 µM (inactive)	9.04 µM (inactive)
